Data: patent US12660819B2, “Herbicidal derivatives” (SYNGENTA CROP PROTECTION AG, priority 2020, dated 2026)

Tests used:
Type in all cases: in vivo
[1] = test system: Zea mays (ZEAMX); assay: Pre-emergence Test (glasshouse, percentage damage to the plant); details: 1000 g/ha unless otherwise stated, five-point scale
[2] = test system: Ipomoea hederacea (IPOHE); assay: as above; details: 1000 g/ha unless otherwise stated, five-point scale
[3] = test system: Setaria faberi (SETFA); assay: as above; details: 1000 g/ha unless otherwise stated, five-point scale
[4] = test system: Amaranthus retoflexus (AMARE); assay: as above; details: 1000 g/ha unless otherwise stated, five-point scale
[5] = test system: Amaranthus retoflexus (AMARE); assay: Post-emergence Test (glasshouse, percentage damage to the plant); details: post-emergence spray, 1000 g/ha unless otherwise stated, evaluated after 13 days
In short: (§1)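 Scored 13 days after spraying as percentage plant damage in five bands (5=81–100%, 4=61–80%, 3=41–60%, 2=21–40%, 1=0–20%). Spray at 1000 g/ha unless stated, in acetone/water 50:50 plus 0.5% Tween 20, onto sown glasshouse pots (24/16 °C, 14 h light, 65% humidity).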

[6] = test system: Zea mays (ZEAMX); assay: as above; details: post-emergence spray, 1000 g/ha unless otherwise stated, evaluated after 13 days
In short: (§2)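 Seeds sown in standard soil in a glasshouse (24/16 °C day/night, 14 h light, 65% humidity), then sprayed with an aqueous solution of the compound formulated in acetone/water 50:50 with 0.5% Tween 20 at 1000 g/ha unless otherwise stated. Percentage damage was scored after 13 days on a five-point scale (5=81-100%; 1=0-20%).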

[7] = test system: Echinochloa crus-galli (ECHCG); assay: as above; details: post-emergence spray, 1000 g/ha unless otherwise stated, evaluated after 13 days
In short: as §1

[8] = test system: Abutilon theophrasti (ABUTH); assay: as above; details: post-emergence spray, 1000 g/ha unless otherwise stated, evaluated after 13 days
In short: as §1

[9] = test system: Setaria faberi (SETFA); assay: as above; details: post-emergence spray, 1000 g/ha unless otherwise stated, evaluated after 13 days
In short: as §2

[10] = test system: Ipomoea hederacea (IPOHE); assay: as above; details: post-emergence spray, 1000 g/ha unless otherwise stated, evaluated after 13 days
In short: as §2

[11] = test system: Echinochloa crus-galli (ECHCG); assay: Pre-emergence Test (glasshouse, percentage damage to the plant); details: 1000 g/ha unless otherwise stated, five-point scale
[12] = test system: Abutilon theophrasti (ABUTH); assay: as above; details: 1000 g/ha unless otherwise stated, five-point scale

Structure (SMILES) | percentage damage to the plant, ZEAMX [1] | percentage damage to the plant, IPOHE [2] | percentage damage to the plant, SETFA [3] | percentage damage to the plant, AMARE [4] | Post-emergence Test AMARE, percentage damage to the plant (five-point scale) [5] | Post-emergence Test ZEAMX, percentage damage to the plant (five-point scale) [6] | Post-emergence Test ECHCG, percentage damage to the plant (five-point scale) [7] | Post-emergence Test ABUTH, percentage damage to the plant (five-point scale) [8] | Post-emergence Test SETFA, percentage damage to the plant (five-point scale) [9] | Post-emergence Test IPOHE, percentage damage to the plant (five-point scale) [10] | percentage damage to the plant, ECHCG [11] | percentage damage to the plant, ABUTH [12]
CCn1c(C)c(-c2cc(Cl)cc(Cl)c2)c(=O)c(C(=O)O)c1-c1ccc(Cl)c(Cl)c1 [Compound 56, 2-(3,4-dichlorophenyl)-5-(3,5-dichlorophenyl)-1-ethyl-6-methyl-4-oxo-pyridine-3-carboxylic acid] | 1 (1=0-20%) | 1 (1=0-20%) | 1 (1=0-20%) | 1 (1=0-20%) | 1 (1=0-20%) | 1 (1=0-20%) | 1 (1=0-20%) | 1 (1=0-20%) | 1 (1=0-20%) | 1 (1=0-20%) | 1 (1=0-20%) | 1 (1=0-20%)
CCn1c(C)c(-c2ccc(Cl)c(C#N)c2)c(=O)c(C(=O)O)c1-c1ccc(Cl)c(Cl)c1 [Compound 57, 5-(4-chloro-3-cyano-phenyl)-2-(3,4-dichlorophenyl)-1-ethyl-6-methyl-4-oxo-pyridine-3-carboxylic acid] | 2 (2=21-40%) | 2 (2=21-40%) | 4 (4=61-80%) | 3 (3=41-60%) | 4 (4=61-80%) | 2 (2=21-40%) | 3 (3=41-60%) | 3 (3=41-60%) | 4 (4=61-80%) | 2 (2=21-40%) | 3 (3=41-60%) | 1 (1=0-20%)
CCn1c(C)c(-c2ccn(C)c(=O)c2)c(=O)c(C(=O)O)c1-c1ccc(Cl)c(Cl)c1 [Compound 58, 2-(3,4-dichlorophenyl)-1-ethyl-6-methyl-5-(1-methyl-2-oxo-4-pyridyl)-4-oxo-pyridine-3-carboxylic acid] | 1 (1=0-20%) | 1 (1=0-20%) | 1 (1=0-20%) | 1 (1=0-20%) | 1 (1=0-20%) | 1 (1=0-20%) | 1 (1=0-20%) | 1 (1=0-20%) | 1 (1=0-20%) | 1 (1=0-20%) | 1 (1=0-20%) | 1 (1=0-20%)
CCn1c(C)c(-c2cnc(F)c(F)c2)c(=O)c(C(=O)O)c1-c1ccc(Cl)c(Cl)c1 [Compound 59, 2-(3,4-dichlorophenyl)-5-(5,6-difluoro-3-pyridyl)-1-ethyl-6-methyl-4-oxo-pyridine-3-carboxylic acid] | 1 (1=0-20%) | 3 (3=41-60%) | 4 (4=61-80%) | 1 (1=0-20%) | 3 (3=41-60%) | 3 (3=41-60%) | 3 (3=41-60%) | 3 (3=41-60%) | 4 (4=61-80%) | 3 (3=41-60%) | 2 (2=21-40%) | 3 (3=41-60%)
CCn1c(C)c(-c2cnc3c(c2)OC(F)(F)O3)c(=O)c(C(=O)O)c1-c1ccc(Cl)c(Cl)c1 [Compound 60, 2-(3,4-dichlorophenyl)-5-(2,2-difluoro-[1,3]dioxolo[4,5-b]pyridin-6-yl)-1-ethyl-6-methyl-4-oxo-pyridine-3-carboxylic acid] | 1 (1=0-20%) | 2 (2=21-40%) | 4 (4=61-80%) | 2 (2=21-40%) | 2 (2=21-40%) | 1 (1=0-20%) | 3 (3=41-60%) | 2 (2=21-40%) | 4 (4=61-80%) | 2 (2=21-40%) | 2 (2=21-40%) | 3 (3=41-60%)
CCn1c(C)c(-c2cncc(OC)c2)c(=O)c(C(=O)O)c1-c1ccc(Cl)c(Cl)c1 [Compound 61, 2-(3,4-dichlorophenyl)-1-ethyl-5-(5-methoxy-3-pyridyl)-6-methyl-4-oxo-pyridine-3-carboxylic acid] | 1 (1=0-20%) | 1 (1=0-20%) | 4 (4=61-80%) | 1 (1=0-20%) | 1 (1=0-20%) | 1 (1=0-20%) | 1 (1=0-20%) | 2 (2=21-40%) | 3 (3=41-60%) | 1 (1=0-20%) | 1 (1=0-20%) | 2 (2=21-40%)
CCn1c(C)c(-c2cc(F)cc(Cl)c2)c(=O)c(C(=O)O)c1-c1ccc(Cl)c(Cl)c1 [Compound 62, 5-(3-chloro-5-fluoro-phenyl)-2-(3,4-dichlorophenyl)-1-ethyl-6-methyl-4-oxo-pyridine-3-carboxylic acid] | 1 (1=0-20%) | 1 (1=0-20%) | 2 (2=21-40%) | 1 (1=0-20%) | 1 (1=0-20%) | 1 (1=0-20%) | 1 (1=0-20%) | 2 (2=21-40%) | 1 (1=0-20%) | 2 (2=21-40%) | 1 (1=0-20%) | 1 (1=0-20%)
CCn1c(C)c(-c2ccc(Cl)s2)c(=O)c(C(=O)O)c1-c1ccc(Cl)c(Cl)c1 [Compound 63, 5-(5-chloro-2-thienyl)-2-(3,4-dichlorophenyl)-1-ethyl-6-methyl-4-oxo-pyridine-3-carboxylic acid] | 1 (1=0-20%) | 2 (2=21-40%) | 3 (3=41-60%) | 4 (4=61-80%) | 3 (3=41-60%) | 3 (3=41-60%) | 4 (4=61-80%) | 3 (3=41-60%) | 3 (3=41-60%) | 3 (3=41-60%) | 1 (1=0-20%) | 2 (2=21-40%)
CCn1c(C)c(-c2ccc(C(F)(F)F)c(Cl)c2)c(=O)c(C(=O)O)c1-c1ccc(Cl)c(Cl)c1 [Compound 64, 5-[3-chloro-4-(trifluoromethyl)phenyl]-2-(3,4-dichlorophenyl)-1-ethyl-6-methyl-4-oxo-pyridine-3-carboxylic acid] | 1 (1=0-20%) | 1 (1=0-20%) | 1 (1=0-20%) | 2 (2=21-40%) | 1 (1=0-20%) | 1 (1=0-20%) | 1 (1=0-20%) | 1 (1=0-20%) | 1 (1=0-20%) | 1 (1=0-20%) | 1 (1=0-20%) | 1 (1=0-20%)
